Results from article PMC5608352, “Formyl peptide derived lipopeptides disclose differences between the receptors in mouse and men and call the pepducin concept in question” (PLoS ONE, 2017).
Residues, ends and D or L forms follow the SMILES beside them. *: point of attachment. Palmitoyl = CCCCCCCCCCCCCCCC(=O)*

Experiments:
FPR2 [1] = molecular target: T1, FPR2 (Homo sapiens, UniProt P25090); assay: Inhibition of WKYMVM-induced superoxide release, human neutrophils; assay type: cell-based
T1 construct: Human peripheral blood neutrophils were isolated from buffy coats from healthy blood donors; endogenous in cells; host or cells: human peripheral blood neutrophils from buffy coats of healthy donors
T1 sequence (P25090 1-351): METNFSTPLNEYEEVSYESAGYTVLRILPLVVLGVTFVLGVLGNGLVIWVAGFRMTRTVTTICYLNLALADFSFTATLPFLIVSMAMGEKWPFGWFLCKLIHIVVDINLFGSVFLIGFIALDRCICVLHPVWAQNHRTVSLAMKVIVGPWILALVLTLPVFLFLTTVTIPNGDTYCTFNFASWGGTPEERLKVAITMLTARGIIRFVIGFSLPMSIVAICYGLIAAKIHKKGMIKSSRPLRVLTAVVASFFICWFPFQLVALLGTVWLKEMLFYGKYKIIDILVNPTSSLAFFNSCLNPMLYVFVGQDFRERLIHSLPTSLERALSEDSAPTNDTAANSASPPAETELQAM
Text: Human peripheral blood neutrophils were isolated from buffy coats from healthy blood donors using dextran sedimentation and Ficoll-Paque gradient centrifugation as described. The remaining erythrocytes were disrupted by hypotonic lysis and the neutrophils were washed twice, suspended in KRG and, stored on melting ice until use. This isolation process permits cells to be purified with minimal granule mobilization. The buffy coats were obtained from the blood bank at Sahlgrenska University Hospital. Ethics approval was not needed since the buffy coats were provided anonymously and could not be traced back to a specific individual. This is in line with Swedish legislation section code 4§ 3p SFS 2003:460 (Lag om etikprövning av forskning som avser människor).
(§1) NADPH-oxidase activity was determined using an isoluminol and HRP-enhanced chemiluminescence (CL) system that allow for the determination of superoxide production. The CL activity was measured in a six-channel Biolumat LB 9505 apparatus (Berthold Co., Wildbad, Germany), using disposable 4-mL polypropylene tubes with 1 mL reaction mixture. The tubes contained 4 U HRP and 10 μg/mL isoluminol together with the cells that were equilibrated in the Biolumat for 5 min at 37°C, after which the stimulus solution (100 μL) was added. The light emission was recorded continuously over time and presented as superoxide production (in arbitrary light units, cpm x10^-6) as a function of time (min). The activity before stimulus addition was recorded as basal line and this activity was not changed in vehicle control samples. […]
(§2) Data analysis was performed using Graph Pad Prism 7.0. The EC50/IC50 values were determined from experiments in which the activities were normalized to the response induced by maximal response or induced by agonist in the absence of inhibitor. […]
Human neutrophils (10^5 cells) were pre-incubated without (solid line) or with mF2Pal16 (1 μM) for 5 min before stimulation with A) the FPR2 specific agonist WKYMVM (50 nM, indicated by the arrow). […] The release of superoxide anions was measured continuously. […]

Fpr2 [2] = molecular target: T2, Fpr2 (Mus musculus, UniProt O88536); assay: Inhibition of F2Pal16-induced superoxide release, WT mouse neutrophils; assay type: cell-based; conditions: Boc2 2 μM or peptidomimetic inhibitor 1 μM (five experiments), or mF2Pal16 500 nM against F2Pal16 500 nM (three experiments); 5 min pre-incubation
T2 construct: WT mouse neutrophils (5 x 10^4 cells) were pre-incubated without (solid line) or with mF2Pal16; endogenous in cells; host or cells: bone marrow neutrophils of C57BL/6 wild-type mice, TNF-alpha primed
T2 sequence (O88536 1-351): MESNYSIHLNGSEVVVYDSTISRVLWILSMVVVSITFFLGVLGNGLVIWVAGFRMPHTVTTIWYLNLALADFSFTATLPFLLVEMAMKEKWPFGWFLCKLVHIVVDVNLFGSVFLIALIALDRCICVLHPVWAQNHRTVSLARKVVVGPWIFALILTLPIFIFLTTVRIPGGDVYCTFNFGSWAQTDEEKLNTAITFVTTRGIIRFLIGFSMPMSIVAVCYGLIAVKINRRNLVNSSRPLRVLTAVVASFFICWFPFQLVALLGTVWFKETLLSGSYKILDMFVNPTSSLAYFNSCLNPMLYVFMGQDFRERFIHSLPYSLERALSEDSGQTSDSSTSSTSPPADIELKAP
Text: Mice (8–12 weeks of age) were killed by cervical dislocation, the femurs and tibias were removed and freed of soft tissue attachments, and the extreme distal tip of each extremity was cut off. KRG without Ca^2+ and Mg^2+ (KRG-) was forced through the bone by using a 1-mL syringe with a 27-gauge needle. After dispersing cell clumps and removing the debris, the bone marrow granulocytes were isolated according to an earlier described procedure with some modifications. Briefly, a cell suspension in 2 mL of KRG- was laid on top of a three-layer Percoll gradient (1.095, 1.085, and 1.070 g/mL). The density of each Percoll solution was verified using density marker beads. After centrifugation at 500 × g for 30 min at 4°C in a swinging bucket rotor, the lowest band (1.085/1.095 g/mL interface) was collected as the neutrophil fraction. After washing with KRG-, remaining red blood cells were eliminated by hypotonic lysis. After a final wash with KRG-, the cells were resuspended in KRG. The cell number and population of bone marrow cells were determined by flow cytometry based on forward scatter (size) and side scatter (density) localization.
as §1, with “The tubes contained 4 U HRP and 10 μg/mL isoluminol together with the cells that were equilibrated in the Biolumat for 5 min at 37°C, after which the stimulus solution (100 μL) was added.” left out
as §2

CCCCCCCCCCCCCCCC(=O)N[C@@H](CCCCN)C(=O)N[C@H](C(=O)N[C@@H](CC(N)=O)C(=O)N[C@@H](CCCNC(=N)N)C(=O)N[C@@H](CCCNC(=N)N)C(=O)N[C@@H](CC(N)=O)C(=O)N[C@@H](CC(C)C)C(=O)N[C@H](C(=O)N[C@@H](CC(N)=O)C(=O)N[C@@H](CO)C(=O)N[C@@H](CO)C(=O)N[C@@H](CCCNC(=N)N)C(=O)N1CCC[C@H]1C(=O)N[C@@H](CC(C)C)C(=O)N[C@@H](CCCNC(=N)N)C(=O)N[C@H](C(=O)O)C(C)C)C(C)C)[C@@H](C)CC [mF2Pal16] (Palmitoyl-KINRRNLVNSSRPLRV-OH; C-terminus assumed)
magnitude of FPR2 inhibitory effect compared with PBP10 (FPR2 [1]; human neutrophils): not of the same magnitude as that of the most potent FPR2 inhibitor PBP10
effect on WKYMVM response, human neutrophils (FPR2 [1]; pepducin 1 μM pre-incubated (mF2Pal16, F1Pal16: 5 min), WKYMVM 50 nM): largely inhibited
effect of inhibitor on F2Pal16 response, WT mouse neutrophils (Fpr2 [2]): inhibitory effect
